Source: paper PMC7156458, “Synthetic biology based construction of biological activity-related library of fungal decalin-containing diterpenoid pyrones” (Nature Communications, 2020)

Target: Aβ42 (Homo sapiens, UniProt P05067)
Experiment: Th-T (thioflavin-T) assay of Aβ42 aggregation
Format: biochemical
Settings: for Th-T assay plate reading, mean of three wells (Supplementary Fig. 47): source data, Ab alone and No Ab as controls

Sequence of Aβ42 (P05067 672-713): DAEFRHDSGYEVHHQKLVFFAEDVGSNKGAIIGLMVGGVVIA

## C=C1CC[C@H]2[C@]3(C)C[C@H](C=C(C)C)O[C@H]3CC[C@]2(C)[C@@H]1Cc1c(OC)oc(C)c(C)c1=O [Compound 24]
Aβ42 aggregation time course, reading M117
  Th-T fluorescence, mean of three wells: 3.93
Aβ42 aggregation time course, reading M118
  Th-T fluorescence, mean of three wells: 3.9367
Aβ42 aggregation time course, reading M119
  Th-T fluorescence, mean of three wells: 3.915
Aβ42 aggregation time course, reading M120
  Th-T fluorescence, mean of three wells: 3.905
Aβ42 aggregation time course, reading M121
  Th-T fluorescence, mean of three wells: 3.903
Aβ42 aggregation time course, reading M122
  Th-T fluorescence, mean of three wells: 3.899
Aβ42 aggregation time course, reading M123
  Th-T fluorescence, mean of three wells: 3.9273
Aβ42 aggregation time course, reading M124
  Th-T fluorescence, mean of three wells: 3.899
Aβ42 aggregation time course, reading M125
  Th-T fluorescence, mean of three wells: 3.909
Aβ42 aggregation time course, reading M126
  Th-T fluorescence, mean of three wells: 3.889
Aβ42 aggregation time course, reading M127
  Th-T fluorescence, mean of three wells: 3.86
Aβ42 aggregation time course, reading M128
  Th-T fluorescence, mean of three wells: 3.875
Aβ42 aggregation time course, reading M129
  Th-T fluorescence, mean of three wells: 3.876
Aβ42 aggregation time course, reading M130
  Th-T fluorescence, mean of three wells: 3.844
Aβ42 aggregation time course, reading M131
  Th-T fluorescence, mean of three wells: 3.869
Aβ42 aggregation time course, reading M132
  Th-T fluorescence, mean of three wells: 3.865
Aβ42 aggregation time course, reading M133
  Th-T fluorescence, mean of three wells: 3.8524
Aβ42 aggregation time course, reading M134
  Th-T fluorescence, mean of three wells: 3.8749
Aβ42 aggregation time course, reading M135
  Th-T fluorescence, mean of three wells: 3.85
Aβ42 aggregation time course, reading M136
  Th-T fluorescence, mean of three wells: 3.855
Supplementary Fig. 47, reading M137
  Th-T fluorescence, mean of three wells: 3.87
Supplementary Fig. 47, reading M138
  Th-T fluorescence, mean of three wells: 3.855
Supplementary Fig. 47, reading M139
  Th-T fluorescence, mean of three wells: 3.871
Supplementary Fig. 47, reading M140
  Th-T fluorescence, mean of three wells: 3.832
Supplementary Fig. 47, reading M141
  Th-T fluorescence, mean of three wells: 3.853
Supplementary Fig. 47, reading M142
  Th-T fluorescence, mean of three wells: 3.823
Supplementary Fig. 47, reading M143
  Th-T fluorescence, mean of three wells: 3.843
Supplementary Fig. 47, reading M144
  Th-T fluorescence, mean of three wells: 3.8288
Supplementary Fig. 47, reading M145
  Th-T fluorescence, mean of three wells: 3.794
Supplementary Fig. 47 source data, measurement M37 of time course
  Th-T fluorescence, mean of three wells: 4.118
Supplementary Fig. 47 source data, measurement M38 of time course
  Th-T fluorescence, mean of three wells: 4.1
Supplementary Fig. 47 source data, measurement M39 of time course
  Th-T fluorescence, mean of three wells: 4.133
Supplementary Fig. 47 source data, measurement M40 of time course
  Th-T fluorescence, mean of three wells: 4.141
Supplementary Fig. 47 source data, measurement M41 of time course
  Th-T fluorescence, mean of three wells: 4.132
Supplementary Fig. 47 source data, measurement M42 of time course
  Th-T fluorescence, mean of three wells: 4.118
Supplementary Fig. 47 source data, measurement M43 of time course
  Th-T fluorescence, mean of three wells: 4.101
Supplementary Fig. 47 source data, measurement M44 of time course
  Th-T fluorescence, mean of three wells: 4.12
Supplementary Fig. 47 source data, measurement M45 of time course
  Th-T fluorescence, mean of three wells: 4.146
Supplementary Fig. 47 source data, measurement M46 of time course
  Th-T fluorescence, mean of three wells: 4.159
Supplementary Fig. 47 source data, measurement M47 of time course
  Th-T fluorescence, mean of three wells: 4.139
Supplementary Fig. 47 source data, measurement M48 of time course
  Th-T fluorescence, mean of three wells: 4.146
Supplementary Fig. 47 source data, measurement M49 of time course
  Th-T fluorescence, mean of three wells: 4.116
Supplementary Fig. 47 source data, measurement M50 of time course
  Th-T fluorescence, mean of three wells: 4.153
Supplementary Fig. 47 source data, measurement M51 of time course
  Th-T fluorescence, mean of three wells: 4.157
Supplementary Fig. 47 source data, measurement M52 of time course
  Th-T fluorescence, mean of three wells: 4.123
Supplementary Fig. 47 source data, measurement M53 of time course
  Th-T fluorescence, mean of three wells: 4.133
Supplementary Fig. 47 source data, measurement M54 of time course
  Th-T fluorescence, mean of three wells: 4.156
Supplementary Fig. 47 source data, measurement M55 of time course
  Th-T fluorescence, mean of three wells: 4.1334
Supplementary Fig. 47 source data, measurement M56 of time course
  Th-T fluorescence, mean of three wells: 4.113
Measurement M1
  Th-T assay plate reading, mean of three wells (Supplementary Fig. 47): 0.168
Measurement M2
  Th-T assay plate reading, mean of three wells (Supplementary Fig. 47): 0.1686
Measurement M3
  Th-T assay plate reading, mean of three wells (Supplementary Fig. 47): 0.1808
Measurement M4
  Th-T assay plate reading, mean of three wells (Supplementary Fig. 47): 0.1943
Measurement M5
  Th-T assay plate reading, mean of three wells (Supplementary Fig. 47): 0.213
Measurement M6
  Th-T assay plate reading, mean of three wells (Supplementary Fig. 47): 0.2405
Measurement M7
  Th-T assay plate reading, mean of three wells (Supplementary Fig. 47): 0.3234
Measurement M8
  Th-T assay plate reading, mean of three wells (Supplementary Fig. 47): 0.379
Measurement M9
  Th-T assay plate reading, mean of three wells (Supplementary Fig. 47): 0.4389
Measurement M10
  Th-T assay plate reading, mean of three wells (Supplementary Fig. 47): 0.7586
Measurement M11
  Th-T assay plate reading, mean of three wells (Supplementary Fig. 47): 1.544
Measurement M12
  Th-T assay plate reading, mean of three wells (Supplementary Fig. 47): 2.364
Measurement M13
  Th-T assay plate reading, mean of three wells (Supplementary Fig. 47): 2.959
Measurement M14
  Th-T assay plate reading, mean of three wells (Supplementary Fig. 47): 3.254
Measurement M15
  Th-T assay plate reading, mean of three wells (Supplementary Fig. 47): 3.396
Measurement M16
  Th-T assay plate reading, mean of three wells (Supplementary Fig. 47): 3.5133
Reading M17, Supplementary Fig. 47 source data
  Th-T fluorescence, mean of three wells: 3.637
Reading M18, Supplementary Fig. 47 source data
  Th-T fluorescence, mean of three wells: 3.688
Reading M19, Supplementary Fig. 47 source data
  Th-T fluorescence, mean of three wells: 3.715
Reading M20, Supplementary Fig. 47 source data
  Th-T fluorescence, mean of three wells: 3.759
Reading M21, Supplementary Fig. 47 source data
  Th-T fluorescence, mean of three wells: 3.811
Reading M22, Supplementary Fig. 47 source data
  Th-T fluorescence, mean of three wells: 3.836
Reading M23, Supplementary Fig. 47 source data
  Th-T fluorescence, mean of three wells: 3.884
Reading M24, Supplementary Fig. 47 source data
  Th-T fluorescence, mean of three wells: 3.963
Reading M25, Supplementary Fig. 47 source data
  Th-T fluorescence, mean of three wells: 3.926
Reading M26, Supplementary Fig. 47 source data
  Th-T fluorescence, mean of three wells: 3.978
Reading M27, Supplementary Fig. 47 source data
  Th-T fluorescence, mean of three wells: 3.957
Reading M28, Supplementary Fig. 47 source data
  Th-T fluorescence, mean of three wells: 4.012
Reading M29, Supplementary Fig. 47 source data
  Th-T fluorescence, mean of three wells: 4.002
Reading M30, Supplementary Fig. 47 source data
  Th-T fluorescence, mean of three wells: 4.039
Reading M31, Supplementary Fig. 47 source data
  Th-T fluorescence, mean of three wells: 4.06
Reading M32, Supplementary Fig. 47 source data
  Th-T fluorescence, mean of three wells: 4.053
Reading M33, Supplementary Fig. 47 source data
  Th-T fluorescence, mean of three wells: 4.071
Reading M34, Supplementary Fig. 47 source data
  Th-T fluorescence, mean of three wells: 4.107
Reading M35, Supplementary Fig. 47 source data
  Th-T fluorescence, mean of three wells: 4.086
Reading M36, Supplementary Fig. 47 source data
  Th-T fluorescence, mean of three wells: 4.108
Time course, reading M57
  Th-T fluorescence, mean of three wells: 4.13
Time course, reading M58
  Th-T fluorescence, mean of three wells: 4.119
Time course, reading M59
  Th-T fluorescence, mean of three wells: 4.1173
Time course, reading M60
  Th-T fluorescence, mean of three wells: 4.127
Time course, reading M61
  Th-T fluorescence, mean of three wells: 4.118
Time course, reading M62
  Th-T fluorescence, mean of three wells: 4.092
Time course, reading M63
  Th-T fluorescence, mean of three wells: 4.112
Time course, reading M64
  Th-T fluorescence, mean of three wells: 4.119
Time course, reading M65
  Th-T fluorescence, mean of three wells: 4.128
Time course, reading M66
  Th-T fluorescence, mean of three wells: 4.121
Time course, reading M67
  Th-T fluorescence, mean of three wells: 4.11
time-course reading M97, Supplementary Fig. 47 source data
  Th-T fluorescence, mean of three wells: 3.985
time-course reading M98, Supplementary Fig. 47 source data
  Th-T fluorescence, mean of three wells: 4.028
time-course reading M99, Supplementary Fig. 47 source data
  Th-T fluorescence, mean of three wells: 3.988
time-course reading M100, Supplementary Fig. 47 source data
  Th-T fluorescence, mean of three wells: 4.004
time-course reading M101, Supplementary Fig. 47 source data
  Th-T fluorescence, mean of three wells: 3.9991
time-course reading M102, Supplementary Fig. 47 source data
  Th-T fluorescence, mean of three wells: 3.997
time-course reading M103, Supplementary Fig. 47 source data
  Th-T fluorescence, mean of three wells: 3.988
time-course reading M104, Supplementary Fig. 47 source data
  Th-T fluorescence, mean of three wells: 3.979
time-course reading M105, Supplementary Fig. 47 source data
  Th-T fluorescence, mean of three wells: 4.002
time-course reading M106, Supplementary Fig. 47 source data
  Th-T fluorescence, mean of three wells: 3.966
time-course reading M107, Supplementary Fig. 47 source data
  Th-T fluorescence, mean of three wells: 3.935
time-course reading M108, Supplementary Fig. 47 source data
  Th-T fluorescence, mean of three wells: 3.958
time-course reading M109, Supplementary Fig. 47 source data
  Th-T fluorescence, mean of three wells: 3.936
time-course reading M110, Supplementary Fig. 47 source data
  Th-T fluorescence, mean of three wells: 3.951
time-course reading M111, Supplementary Fig. 47 source data
  Th-T fluorescence, mean of three wells: 3.932
time-course reading M112, Supplementary Fig. 47 source data
  Th-T fluorescence, mean of three wells: 3.941
time-course reading M113, Supplementary Fig. 47 source data
  Th-T fluorescence, mean of three wells: 3.942
time-course reading M114, Supplementary Fig. 47 source data
  Th-T fluorescence, mean of three wells: 3.927
time-course reading M115, Supplementary Fig. 47 source data
  Th-T fluorescence, mean of three wells: 3.938
time-course reading M116, Supplementary Fig. 47 source data
  Th-T fluorescence, mean of three wells: 3.922
